We go through four compounds from ChEMBL document CHEMBL3817840, “Discovery of CNS Penetrant CXCR2 Antagonists for the Potential Treatment of CNS Demyelinating Disorders” (ACS Med Chem Lett, 2016).

Molecules are shown by their SMILES. The source made the active and inactive calls. The calls are words filed in the database; no cut-off is given here.

Series [1] has as its system Mus musculus. Briefly: Induction of remyelination in corpus callosum in cuprizone-induced C57BL/6 mouse demyelination model at 100 mg/kg, po bid for 9 consecutive days by black-gold myelin staining based microscopy. The series is classed as functional, organism-based.
A short description of series [2]: Volume of distribution at steady state in C57BL/6 mouse at 1 mg/kg, iv. The series is classed as ADME, organism-based. Particulars: in vivo, read-out: Vdss.
Series [3] is described as follows: Stability of the compound assessed as GSH conjugate formation. The series is classed as physicochemical.
Series [4] is described as follows: AUC (0 to 4 hrs) in C57BL/6 mouse blood at 2 mg/kg, ip by UPLC/MS/MS analysis. The series is classed as ADME, organism-based. More on the design: dose 2 mg/kg, time < 4 hr, route intraperitoneal. As to conditions: C57BL/6, mouse, blood.
The nature of series [5]: Oral bioavailability in C57BL/6 mouse at 2 mg/kg. The series is classed as ADME, organism-based. Particulars: in vivo.
Series [6] can be described thus: Fraction unbound in human plasma. The class given is ADME, cell-free.
The subject of series [7] is Mus musculus. Briefly: Dose normalized AUC (0 to infinity) in C57BL/6 mouse at 2 mg/kg, po. As to conditions: in vivo. The series is classed as ADME, organism-based.
Series [8] is described as follows: Clearance in C57BL/6 mouse blood at 1 mg/kg, iv. The class given is ADME, organism-based.
Series [9] deals with T1, C-X-C chemokine receptor type 2 (Homo sapiens, UniProt P25025).
T1 sequence (P25025 whole entry): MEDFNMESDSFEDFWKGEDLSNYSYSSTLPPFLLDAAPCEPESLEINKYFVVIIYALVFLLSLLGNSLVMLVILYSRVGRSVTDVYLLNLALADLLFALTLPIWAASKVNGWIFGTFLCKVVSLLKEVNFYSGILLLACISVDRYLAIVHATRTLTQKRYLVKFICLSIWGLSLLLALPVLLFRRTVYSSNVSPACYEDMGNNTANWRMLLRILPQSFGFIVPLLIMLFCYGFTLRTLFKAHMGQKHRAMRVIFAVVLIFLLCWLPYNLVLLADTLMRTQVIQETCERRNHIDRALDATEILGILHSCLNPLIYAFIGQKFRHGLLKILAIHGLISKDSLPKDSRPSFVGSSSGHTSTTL
Briefly: Antagonist activity at human recombinant Gal4-VP16 fused-CXCR2 assessed as inhibition of CXCL1-mediated lactamase reporter gene expression after overnight incubation.

Series [10] is described as follows: Half life in C57BL/6 mouse at 1 mg/kg, iv. The series is classed as ADME, organism-based. Particulars: in vivo.
The subject of series [11] is Brain. The series is described as follows: AUC (0 to 4 hrs) in C57BL/6 mouse brain at 2 mg/kg, ip by UPLC/MS/MS analysis. As to conditions: in vivo. Details: dose 2 mg/kg, time < 4 hr, route intraperitoneal. The class given is ADME, organism-based.
Series [12] can be described thus: Cmax in C57BL/6 mouse at 2 mg/kg, po. The series is classed as ADME, organism-based. More on the design: dose 2 mg/kg, route oral. As to conditions: in vivo.
For series [13], the target named is Voltage-gated inwardly rectifying potassium channel KCNH2 (Homo sapiens, UniProt Q12809). Briefly: Binding affinity to human ERG.
The target of the next series is Cytochrome P450 2C19 (Homo sapiens, UniProt P33261). Briefly: Inhibition of CYP2C19 (unknown origin). The class given is ADME.
A further series addresses T2, Cytochrome P450 1A2 (Homo sapiens, UniProt P05177).
T2 sequence (P05177 whole entry): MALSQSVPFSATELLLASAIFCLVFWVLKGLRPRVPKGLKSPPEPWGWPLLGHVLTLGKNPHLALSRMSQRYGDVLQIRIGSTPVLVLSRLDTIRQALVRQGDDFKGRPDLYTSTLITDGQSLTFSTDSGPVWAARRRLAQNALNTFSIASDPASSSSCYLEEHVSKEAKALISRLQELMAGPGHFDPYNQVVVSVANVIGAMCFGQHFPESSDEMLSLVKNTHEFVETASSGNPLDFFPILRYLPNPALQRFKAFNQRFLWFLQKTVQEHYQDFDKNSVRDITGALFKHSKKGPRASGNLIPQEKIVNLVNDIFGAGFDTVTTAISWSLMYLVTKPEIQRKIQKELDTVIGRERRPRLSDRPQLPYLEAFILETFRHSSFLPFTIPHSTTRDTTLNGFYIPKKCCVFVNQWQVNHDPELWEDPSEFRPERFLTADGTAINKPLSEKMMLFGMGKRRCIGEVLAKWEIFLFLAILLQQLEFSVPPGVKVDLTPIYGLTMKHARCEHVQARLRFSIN
Briefly: Inhibition of CYP1A2 (unknown origin). The series is classed as ADME.

The target of the next series is Cytochrome P450 3A4 (Homo sapiens, UniProt P08684). The series is described as follows: Inhibition of CYP3A4 (unknown origin). The class given is ADME.
Series [14] is described as follows: Ratio of drug level in C57BL/6 mouse brain to blood at 3.4 mg/kg, po. The series is classed as ADME, organism-based.
Series [15] in a line: AUC (0 to 4 hrs) in C57BL/6 mouse blood at 3.4 mg/kg, po by UPLC/MS/MS analysis. The series is classed as ADME, organism-based. Details: time < 4 hr, dose 3.4 mg/kg, route oral.
Series [16] deals with Brain. The series is described as follows: AUC (0 to 4 hrs) in C57BL/6 mouse brain at 3.4 mg/kg, po by UPLC/MS/MS analysis. The class given is ADME, organism-based. Details: dose 3.4 mg/kg, time < 4 hr, route oral. Particulars: in vivo.
Series [17] is described as follows: AUC (0 to 4 hrs) in C57BL/6 mouse blood at 1.9 mg/kg, po by UPLC/MS/MS analysis. The series is classed as ADME, organism-based. More on the design: dose 1.9 mg/kg, time < 4 hr, route oral.
Series [18] in a line: Ratio of drug level in C57BL/6 mouse brain to blood at 1.9 mg/kg, po. The series is classed as ADME, organism-based.
The subject of series [19] is Brain. The series is described as follows: AUC (0 to 4 hrs) in C57BL/6 mouse brain at 1.9 mg/kg, po by UPLC/MS/MS analysis. The series is classed as ADME, organism-based. Details: dose 1.9 mg/kg, time < 4 hr, route oral. As to conditions: in vivo.

Sequence of Voltage-gated inwardly rectifying potassium channel KCNH2 (Q12809 whole entry): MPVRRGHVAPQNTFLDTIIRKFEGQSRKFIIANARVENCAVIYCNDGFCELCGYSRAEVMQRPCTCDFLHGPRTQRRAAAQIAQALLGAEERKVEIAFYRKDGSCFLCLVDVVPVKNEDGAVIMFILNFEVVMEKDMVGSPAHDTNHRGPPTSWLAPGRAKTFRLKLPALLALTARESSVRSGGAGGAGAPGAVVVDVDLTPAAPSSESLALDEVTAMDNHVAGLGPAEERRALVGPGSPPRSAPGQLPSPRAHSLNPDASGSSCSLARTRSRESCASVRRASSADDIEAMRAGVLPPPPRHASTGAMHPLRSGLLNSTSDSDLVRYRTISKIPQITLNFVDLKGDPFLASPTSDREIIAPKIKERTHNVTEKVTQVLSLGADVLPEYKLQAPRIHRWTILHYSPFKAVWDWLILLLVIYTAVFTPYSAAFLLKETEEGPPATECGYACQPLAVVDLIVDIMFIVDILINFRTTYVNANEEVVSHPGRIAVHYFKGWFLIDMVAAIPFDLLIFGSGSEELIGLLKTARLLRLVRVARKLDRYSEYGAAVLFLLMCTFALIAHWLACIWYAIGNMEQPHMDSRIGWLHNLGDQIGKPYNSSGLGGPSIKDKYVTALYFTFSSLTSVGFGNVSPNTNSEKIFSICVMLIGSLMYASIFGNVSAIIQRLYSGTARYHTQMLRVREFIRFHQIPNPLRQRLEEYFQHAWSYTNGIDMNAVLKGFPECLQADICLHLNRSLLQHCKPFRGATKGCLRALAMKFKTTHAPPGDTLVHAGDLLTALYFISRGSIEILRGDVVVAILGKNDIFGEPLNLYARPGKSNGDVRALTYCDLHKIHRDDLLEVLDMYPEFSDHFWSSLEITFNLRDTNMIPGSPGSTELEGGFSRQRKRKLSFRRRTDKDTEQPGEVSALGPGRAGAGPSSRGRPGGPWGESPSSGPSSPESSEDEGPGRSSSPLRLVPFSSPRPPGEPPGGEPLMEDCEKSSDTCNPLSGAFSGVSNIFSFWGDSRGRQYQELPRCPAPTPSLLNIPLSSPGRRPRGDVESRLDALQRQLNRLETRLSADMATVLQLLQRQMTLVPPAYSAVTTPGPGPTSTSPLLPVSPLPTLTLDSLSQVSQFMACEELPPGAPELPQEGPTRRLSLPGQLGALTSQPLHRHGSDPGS
Sequence of Cytochrome P450 3A4 (P08684 whole entry): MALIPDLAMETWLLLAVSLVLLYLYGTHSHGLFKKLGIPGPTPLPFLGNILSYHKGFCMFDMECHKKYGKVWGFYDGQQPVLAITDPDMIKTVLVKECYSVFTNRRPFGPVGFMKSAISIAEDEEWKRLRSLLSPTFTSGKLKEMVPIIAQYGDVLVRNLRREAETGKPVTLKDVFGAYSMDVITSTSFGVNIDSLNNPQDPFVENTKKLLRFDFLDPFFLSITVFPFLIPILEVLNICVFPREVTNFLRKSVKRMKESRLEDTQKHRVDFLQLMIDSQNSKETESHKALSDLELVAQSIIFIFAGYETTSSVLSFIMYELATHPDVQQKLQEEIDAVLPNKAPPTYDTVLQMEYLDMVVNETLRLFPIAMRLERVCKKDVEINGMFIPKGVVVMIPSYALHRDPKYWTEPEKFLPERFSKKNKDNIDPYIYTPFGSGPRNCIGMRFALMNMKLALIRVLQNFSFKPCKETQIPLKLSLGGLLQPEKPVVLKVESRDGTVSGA
Sequence of Cytochrome P450 2C19 (P33261 whole entry): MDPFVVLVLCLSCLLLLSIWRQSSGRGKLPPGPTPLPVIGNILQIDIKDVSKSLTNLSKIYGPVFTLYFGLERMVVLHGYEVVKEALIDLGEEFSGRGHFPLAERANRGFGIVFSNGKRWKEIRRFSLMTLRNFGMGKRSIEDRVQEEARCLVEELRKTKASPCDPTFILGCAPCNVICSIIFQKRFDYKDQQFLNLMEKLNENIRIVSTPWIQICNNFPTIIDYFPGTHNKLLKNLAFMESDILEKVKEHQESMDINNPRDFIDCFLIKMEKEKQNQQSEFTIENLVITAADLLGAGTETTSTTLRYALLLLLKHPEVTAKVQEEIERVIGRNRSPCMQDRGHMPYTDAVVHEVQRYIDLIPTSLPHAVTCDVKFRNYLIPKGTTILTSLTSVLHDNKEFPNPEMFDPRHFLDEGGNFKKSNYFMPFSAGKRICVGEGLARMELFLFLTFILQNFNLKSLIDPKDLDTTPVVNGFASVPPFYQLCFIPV

On to `CN1CCC(S(=O)(=O)c2c(Cl)ccc(NC(=O)Nc3cccc(F)c3Cl)c2O)CC1`, for which the outcome with Mus musculus [1] was Active. The Vd in series [2] is 3.17 L/kg. The Stability result in series [3] is given as “Stable”. The AUC(0-t) (in general, the area under the concentration-time curve up to a stated or last time point) at 4 h in series [4] came to 735 ng·h/mL. Besides, the bioavailability (in general, dose-corrected exposure relative to a reference, in per cent) in series [5] worked out at 41%. Also, in [6], the Fu was 0.13%. The compound further displayed an AUC/dose in the series on Mus musculus [7] of 354 ng·h/mL/mg/kg. Further, the clearance – broadly, a measure of how efficiently the substance is removed, as volume per time – in [8] stood at 16.9 mL/min/kg. The IC50 (usually the concentration that gives 50% inhibition) in [9] was 0.501 nM. Further, the half-life (commonly how long it takes for the measured level to halve) in series [10] is 2.8 h. Besides, the AUC with Brain [11] was 335 ng·h/g. For the same compound, the concentration in series [12] peaked (Cmax) at 157 ng/mL.
With `CN1CCC(S(=O)(=O)c2c(Cl)ccc(NC(=O)Nc3cccc(Cl)c3Cl)c2O)CC1`, the Vd in series [2] is 2.12 L/kg. Also, the IC50 in [13] is above 79400 nM; against Cytochrome P450 2C19 it was above 10000 nM; in series [9] it was 1.58 nM; against Cytochrome P450 1A2 it was above 10000 nM; on Cytochrome P450 3A4, above 10000 nM. For the same compound, the Stability result in [3] was “Stable”. In addition, in series [4], the AUC(0-t) at 4 h was 600 ng·h/mL. In [5], this compound showed a bioavailability of 30%. In addition, the Fu in [6] is on record as 0.1%. Moreover, the AUC/dose in the series on Mus musculus [7] is 299 ng·h/mL/mg/kg. The compound also gave a clearance in [8] of 15.6 mL/min/kg. Also, the half-life in series [10] was 2 h. In the series with Brain [11], this compound registered an AUC of 358 ng·h/g. Also, the concentration in series [12] peaked (Cmax) at 132 ng/mL.
Take `O=C(Nc1ccc(Cl)c(S(=O)(=O)N2CCNCC2)c1O)Nc1cccc(Cl)c1Cl`: the Kp (commonly the ratio of the level in a tissue or fluid to that in plasma or blood) in [14] worked out at 0.17. Further, the AUC(0-t) at 4 h in series [15] is 855 ng·h/mL. In addition, the IC50 in series [9] was 0.631 nM. The compound also came in with an AUC with Brain [16] of 143 ng·h/g.
`NS(=O)(=O)c1c(Cl)ccc(NC(=O)Nc2cccc(Cl)c2Cl)c1O`: the IC50 in [9] was 2 nM. This compound had an AUC(0-t) at 4 h in series [17] of 352 ng·h/mL. In addition, the Kp in series [18] turned out to be 0.14. The AUC with Brain [19] was found to be 49 ng·h/g.
